From patent US12552753B2, “Methods and compositions for targeting Tregs using CCR8 inhibitors” (Nanjing Immunophage Biomedical Co., Ltd., priority 2020, dated 2026)
Structures can show the parent of a compound that is named as a salt.

The molecules below were run against CCR8 (Homo sapiens, UniProt P51685) (assay: Tango assay (Tango-CCR8-Gal4-CHO-K1 cells, CCL1-stimulated, ONE-Glo luminescence)). Settings: Tango Assay IC50, Inhibition of CCR8 Tango cell in vitro.
Chain of CCR8 (P51685 whole entry, the tested form may be a part): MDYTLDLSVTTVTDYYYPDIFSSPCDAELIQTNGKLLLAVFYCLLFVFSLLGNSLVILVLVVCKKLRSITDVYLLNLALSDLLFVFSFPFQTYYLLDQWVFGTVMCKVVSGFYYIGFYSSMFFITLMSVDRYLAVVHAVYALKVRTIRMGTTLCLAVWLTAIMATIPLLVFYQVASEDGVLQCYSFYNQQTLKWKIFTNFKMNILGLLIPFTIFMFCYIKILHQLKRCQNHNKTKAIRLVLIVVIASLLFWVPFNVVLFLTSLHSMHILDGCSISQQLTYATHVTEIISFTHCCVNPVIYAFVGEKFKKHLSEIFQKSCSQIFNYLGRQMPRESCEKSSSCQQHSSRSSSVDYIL

Row | SMILES | IC50 [nM]
1 | Cc1ccccc1C(=O)Nc1ccc(S(=O)(=O)Nc2ccc3c(c2)N(CCN(C)C)CC3)c2ccccc12 [Compound 33, N-(4-(N-(1-(2-(dimethylamino)ethyl)indolin-6-yl)sulfamoyl)naphthalen-1-yl)-2-methylbenzamide] | > 10000
2 | CCOC(=O)N1CCCC(C(=O)NS(=O)(=O)c2ccc(NC(=O)c3ccccc3C)c3ccccc23)C1 (stereo not shown) [Compound 5, ethyl 3-(((4-(2-methylbenzamido)naph-thalen-1-yl)sulfonyl)carbamoyl) piperidine-1-carboxylate] | > 10000
3 | CC(=O)NC1CCc2cc(S(=O)(=O)NC(C)C3CCCCC3)ccc21 (stereo not shown) [Compound 87, N-(5-(N-(1-cyclohexylethyl)sulfam-oyl)-2,3-dihydro-1H-inden-1-yl)acetamide] | > 10000
4 | CC(NS(=O)(=O)c1ccc2[nH]c(=O)ccc2c1)C1CC2CCC1CC2 (stereo not shown) [Compound 284, N-(1-(bicyclo[2.2.2]octan-2-yl)ethyl)-2-oxo-1,2-dihydroquinoline-6-sulfonamide] | > 100000
5 | COc1cc(NC(=O)c2ccccc2C)c(C)cc1S(=O)(=O)NC(C)C1CC2CCC1CC2 (stereo not shown) [Compound 184, N-(4-(N-(1-(bicyclo[2.2.2]octan-2-yl)ethyl)sulfamoyl)-5-methoxy-2-methylphenyl)-2-methylbenzamide] | 16
6 | Cc1ccccc1C(=O)Nc1ccc(S(=O)(=O)NC(C)C2CCCN(C(=O)OC(C)(C)C)C2)c2ccccc12 (stereo not shown) [Compound 24, tert-butyl 3-(1-(4-(2-methylbenzamido)naph-thalene-1-sulfonamido)ethyl)piper-idine-1-carboxylate] | 930
7 | Cc1cc(S(=O)(=O)N[C@H](C)C2C[C@@H]3CCC2N3)ccc1NC(=O)c1ccccc1C (stereo partly drawn) [Compound 228A, N-(4-(N-(1-(exo-7-azabicyclo[2.2.1]heptan-2-yl)ethyl)sulfamoyl)-2-methylphenyl)-2-methylbenzamide hydrochloride] | > 100000
8 | Cc1ccccc1C(=O)Nc1cc(F)c(S(=O)(=O)NC(C)C2CCN(C)CC2)cc1Cl (stereo not shown) [Compound 263C, N-(2-chloro-5-fluoro-4-(N-(1-(1-methylpiperidin-4-yl)ethyl)sulfamoyl)phenyl)-2-methylbenzamide] | 15
9 | Cc1cc(S(=O)(=O)N[C@H](C)C2CCNCC2)ccc1NC(=O)C1CCCCC1 [Compound 208A, (R)-N-(2-methyl-4-(N-(1-(piperidin-4-yl)ethyl)sulfamoyl)phenyl) cyclohexanecarboxamide hydrochloride] | 55
10 | CCCC(=O)N1CCC(NS(=O)(=O)c2ccc(N3C(=O)c4ccccc4C3=O)cc2)CC1 [Compound 118, N-(1-butyrylpiperidin-4-yl)-4-(1,3-dioxoisoindolin-2-yl)benzenesulfonamide] | > 10000
11 | Cc1ccccc1C(=O)Nc1ccc(S(=O)(=O)N[C@@H]2CCN3C(=O)CC[C@@H]3C2)c2ccccc12 [Compound 47, 2-methyl-N-(4-(N-((7R,8aR)-3-oxooctahydroindolizin-7-yl)sulfamoyl)naphthalen-1-yl)benzamide] | 23
12 | CCCC(=O)N1CCC(NS(=O)(=O)c2ccc(Nc3nccc4ccccc34)c3ccccc23)CC1 [Compound 114, N-(1-butyrylpiperidin-4-yl)-4-(isoquinolin-1-ylamino)naphthalene-1-sulfonamide] | > 10000
13 | Cc1ccccc1C(=O)Nc1ccc(S(=O)(=O)Nc2ccc3c(c2)CN(C(=O)CN(C)C)C3)c2ccccc12 [Compound 37, N-(4-(N-(2-(2-(dimethylamino)acetyl)isoindolin-5-yl)sulfamoyl)naphthalen-1-yl)-2-methylbenzamide] | > 10000
14 | CCCC(=O)N1CCC(NS(=O)(=O)c2ccc(Nc3ncnc4ccccc34)cc2)CC1 [Compound 120, N-(1-butyrylpiperidin-4-yl)-4-(quinazolin-4-ylamino)benzenesulfon-amide] | > 10000
15 | Cc1cc(S(=O)(=O)N[C@H](C)C2CCN(C(=O)OC(C)(C)C)CC2)c(Cl)cc1NC(=O)c1ccccc1C [Compound 168, (R)-tert-butyl 4-(1-(2-chloro-5-methyl-4-(2-methylbenzamido)phen-ylsulfonamido)ethyl)pi-peridine-1-carboxylate] | 1300
16 | CCCN1CCN(c2cccc(NS(=O)(=O)c3ccc(NC(=O)c4ccccc4C)c4ccccc34)c2C)CC1 [Compound 2, 2-methyl-N-(4-(N-(2-methyl-3-(4-propylpiperazin-1-yl)phenyl)sulfamoyl)naphthalen-1-yl)benzamide] | > 10000
17 | Cc1ccccc1C(=O)Nc1ccc(S(=O)(=O)NC(C)C2CCCCN2C(=O)OC(C)(C)C)c2ccccc12 (single isomer, unassigned) [Compound 67, tert-butyl 2-(1-(4-(2-methylbenzamido)naph-thalene-1-sulfonamido)ethyl)piper-idine-1-carboxylate] | 283
18 | CN1CCN(C(=O)N2CCC(NS(=O)(=O)c3ccc4[nH]c(-c5ccccc5)nc4c3)CC2)CC1 [Compound 44, N-(1-(4-methylpiperazine-1-carbonyl)piperidin-4-yl)-2-phenyl-1H-m benzo[d]imidazole-5-sulfonamide] | > 10000
19 | CC(NS(=O)(=O)c1cccc(C(=O)O)c1)C1CCCCC1 (stereo not shown) [Compound 140, 3-(N-(1-cyclohexylethyl)sul-famoyl)benzoic acid] | > 10000
20 | Cc1ccccc1C(=O)Nc1ccc(S(=O)(=O)N[C@H](C)C2CCN(C(=O)OC(C)(C)C)CC2)c(F)c1C [Compound 176, (R)-tert-butyl 4-(1-(2-fluoro-3-methyl-4-(2-methylbenzamido)phen-ylsulfonamido)ethyl)pi-perridine-1-carboxylate] | 711
21 | CCCC(=O)N1CCC(NS(=O)(=O)c2ccc(Nc3cc(C)ncn3)c3ccccc23)CC1 [Compound 116, N-(1-butyrylpiperidin-4-yl)-4-((6-methylpyrimidin-4-yl)amino)naphthalene-1-sulfonamide] | > 10000
22 | Cc1ccc(C(=O)Nc2ccc(S(=O)(=O)N[C@H](C)C3CCN(C)CC3)cc2C)c(C)c1 [Compound 277, (R)-2,4-dimethyl-N-(2-methyl-4-(N-(1-(1-methylpiperidin-4-yl)ethyl)sulfamoyl)phenyl) benzamide] | 2

Other lines, results leading:

Row | IC50 [nM] | SMILES
23 | 12 | Cc1cc(S(=O)(=O)N[C@H](C)C2CCNCC2)ccc1NC(=O)c1ccccc1C(F)(F)F [Compound 249A, (R)-N-(2-methyl-4-(N-(1-(piperidin-4-yl)ethyl)sulfamoyl)phenyl)-2-(trifluoromethyl) benzamide hydrochloride]
24 | 1500 | Cc1ccccc1C(=O)Nc1ccc(S(=O)(=O)NC(C)C2CCCN(C(=O)[C@H](C)N)C2)c2ccccc12 (single isomer, unassigned) [Compound 158A]
25 | 3.2 | Cc1ccccc1C(=O)Nc1ccc(S(=O)(=O)NC(C)C23CCC(CC2)CC3)c2ccccc12 (stereo not shown) [Compound 132, N-(4-(N-(1-(bicyclo[2.2.2]octan-1-yl)ethyl)sulfamoyl)naphthalen-1-yl)-2-methylbenzamide]
26 | > 10000 | Cc1ccccc1C(=O)Nc1ccc(S(=O)(=O)NC(C)C2CCCN(C(=O)CN)C2)c2ccccc12 (single isomer, unassigned) [Compound 156B, N-(4-(N-(1-(1-(2-aminoacetyl)piperidin-3-yl)ethyl)sulfamoyl)naph-thalen-1-yl)-2-methylbenzamide]
27 | > 100000 | Cc1cc(S(=O)(=O)N[C@H](C)C2CCNCC2)ccc1NC(=O)c1ccc(F)cc1C [Compound 258A, (R)-4-fluoro-2-methyl-N-(2-methyl-4-(N-(1-(piperidin-4-yl)ethyl)sulfamoyl)phenyl)benzamide hydrochloride]
28 | > 100000 | Cc1cc(S(=O)(=O)NC(c2ccccc2)C2CCNCC2)ccc1NC(=O)c1ccccc1C (stereo not shown) [Compound 227A, 2-methyl-N-(2-methyl-4-(N-(phenyl(piperidin-4-yl)methyl)sulfamoyl)phenyl)benzamide]
29 | 2 | Cc1ccccc1C(=O)Nc1c(C)cc(S(=O)(=O)N[C@H](C)C2CCNCC2)cc1Cl [Compound 180A, (R)-N-(2-chloro-6-methyl-4-(N-(1-(piperidin-4-yl)eth-yl)sulfamoyl)phen-yl)-2-methylbenzamide hydrochloride]
30 | 99 | Cc1cc(S(=O)(=O)N[C@H](C)C2CCNCC2)ccc1NC(=O)c1ccccc1 [Compound 166A, (R)-N-(2-methyl-4-(N-(1-(piperidin-4-yl)ethyl)sulfamoyl)phen-yl)benzamide hydrochloride]
31 | 73 | CCC(NS(=O)(=O)c1ccc(NC(=O)c2ccccc2C)c(C)c1)C1CCNCC1 (stereo not shown) [Compound 223A, 2-methyl-N-(2-methyl-4-(N-(1-(piperidin-4-yl)propyl)sulfamoyl)phenyl)benzamide hydrochloride]
32 | 1020 | Cc1ccccc1C(=O)Nc1ccc(S(=O)(=O)NC(C)C2CCCN(C(=O)[C@H](C)N)C2)c2ccccc12 (single isomer, unassigned) [Compound 158D]
33 | 2790 | Cc1ccccc1C(=O)Nc1ccc(S(=O)(=O)NC(C)c2nccs2)c2ccccc12 (stereo not shown) [Compound 56, 2-methyl-N-(4-(N-(1-(thiazol-2-yl)ethyl)sulfamoyl)naph-thalen-1-yl)benzamide]
34 | 366 | Cc1ccccc1NC(=O)c1ccc(S(=O)(=O)N[C@H](C)C2CCN(C)CC2)cc1C [Compound 222, (R)-2-methyl-4-(N-(1-(1-methylpiperidin-4-yl)ethyl)sulfamoyl)-N-(o-tolyl)benzamide]
35 | 3.4 | Cc1ccccc1C(=O)Nc1ccc(S(=N)(=O)NC(C)C2CCCCC2)c2ccccc12 (stereo not shown) [Compound 123, N-(4-(N-(1-cyclohexylethyl)sulfamimidoyl)naphthalen-1-yl)-2-methylbenzamide]
36 | 205 | Cc1ccccc1C(=O)Nc1ccc(S(=O)(=O)NC(C)C2CCCN(C(=O)CN)C2)c2ccccc12 (single isomer, unassigned) [Compound 156C, N-(4-(N-(1-(1-(2-aminoacetyl)piperidin-3-yl)ethyl)sulfamoyl)naph-thalen-1-yl)-2-methylbenzamide]

Same assay, conditions: read-out: Tango Assay IC50, Inhibition of CCR8 Tango cell in vitro

Row | IC50 [nM] | SMILES
37 | 500 | CCCC(=O)N1CCCC(C(C)NS(=O)(=O)c2ccc(NC(=O)c3ccccc3C)c3ccccc23)C1 (stereo not shown) [Compound 16, N-(4-(N-(1-(1-butyrylpiperidin-3-yl)ethyl)sulfamoyl)naph-thalen-1-yl)-2-methylbenzamide]
